{
  "source": "patent US8202910B2",
  "about": "(Sequella, Inc., priority 2006, dated 2012)",
  "key": {"cells": {"test_system": "cells", "test": "LD50 for selectivity index (Table 10)", "assay_type": "cell-based, Mycobacterium tuberculosis", "text": "Table 10 lists MIC and LD50 data for selected compounds. […] Table 11 lists MIC data for purified substituted ethylene diamines in comparison to ethambutol (EMB)."}, "[1]": {"assay_type": "in vitro ADME", "settings": "6 h", "description": "(§1) Initially, analytical methods for determination of the compounds had been developed that allowed to carry out all the PK experiments, sec FIG. 29. Here is a brief description of the experiment: (1) plasma spiked with tested compounds and 10 uL of Terfenadine or plasma samples (200 uL) added; (2) ACN (2 mL) added to precipitate protein and spin at 2,500 rpm; (3) evaporate supernatant to dryness; (4) add 200 uL of the diluting solvent: methanol (with 0.1% of trifluoroacetic acid): ammonium acetate (80/20); (5) vortex, spin, and use supernatant; (6) run LC/MS/MS on Sciex API 3000.\nBiostability studies of the compounds in plasma were carried out using concentrations 1 and 15 mg/ml. The compounds were incubated for 1, 2, 3 & 6 hr at 37° C. (Table 18)."}, "in vivo": {"test": "in vivo", "parameters": "species or system mice", "settings": "mouse", "description": "as §1\nPilot PK study of the compounds 37, 59, and 109 in mice was conducted using a cassette dosing: all the three analogs were formulated together in saline at 1.5 mg/mL, and administered to mice simultaneously orally at 25 mg/kg, peritoneally at 6 mg/kg, and intravenously. […] Obtained data are presented on FIGS. 30, 31, and 32 (tested compounds were studied under the NCI′ indexation NSC) and summarized in Table 19."}, "in vitro": {"test": "in vitro", "assay_type": "in vitro ADME", "settings": "plasma"}, "M. tuberculosis": {"test_system": "M. tuberculosis", "test": "Minimum Bactericidal Concentration (MBC)", "assay_type": "cell-based", "settings": "Mycobacterium tuberculosis"}, "[2]": {"test_system": "opiate receptor (non-selective opiate)", "test": "CEREP receptor binding, opiate", "settings": "tested at 10 μM", "text": "(§2) In vitro testing for safety pharmacology and early ADMET (Absorption, Distribution, Metabolism, Excretion, Toxicity) studies of compound 109 were contracted out to CEREP (15318 NE 95th Street, Redmond, Wash., 98052, USA www.cerep.com) under a service agreement and included evaluation of inhibitory binding to a panel of 27 standard receptors and three transporters (See FIG. 60 (Table 31) and FIG. 61 (Table 32)) which included: adenosine receptors (A1 and A2A), adrenergic receptors (alpha 1, alpha 2, beta 1), angiotensin II receptor (AT1), benzodiazapene receptor (BZD), bradykinin receptor (B2), cholecystokinin receptor (CCK1), dopamine receptors (D1, D2S), endothelin receptor (ETA), GABA receptor (GABA), glutamate receptor (NMDA), histamine receptor (H1 central), melanocortin receptor (MC4), muscarinic receptor (M, non-selective), neurokinin receptor (NK1), neuropeptide Y receptor (Y), nicotinic receptor (neuronal, alpha-BGTX-insensitive), opiate receptor (non-selective opiate), orphanin receptor (ORL1), phencyclidine receptor (PCP), serotonin receptor (5-HT), sigma receptor (sigma non-selective), steroid receptor (glucocorticoid receptor, GR), and NE, DA, and 5-HT transporters.\n(§3) The specific ligand binding to the receptors is defined as the difference between the total binding and the nonspecific binding determined in the presence of an excess of unlabelled ligand."}, "[3]": {"test_system": "sigma receptor (sigma non-selective)", "test": "CEREP receptor binding, sigma", "settings": "tested at 10 μM", "text": "as §2, §3"}, "Haemophilus influenzae": {"test_system": "Haemophilus influenzae", "test": "Spectrum of activity MIC (NCCLS)", "assay_type": "cell-based", "settings": "three isolates", "description": "(§4) Compound 109 was tested against a representative panel of commonly encountered clinical microorganisms comprising opportunistic pathogens, target pathogens and normal human flora. The spectrum of activity of compound 109 was evaluated by performing antimicrobial susceptibility testing against a collection of aerobic and anaerobic bacteria, fungi, and mycobacteria. MICs for all organisms were established using the appropriate NCCLS (National Committee for Clinical Laboratory Standards) recommended standard methods and quality control strains."}, "Helicobacter pylori": {"test_system": "Helicobacter pylori", "test": "Spectrum of activity MIC (NCCLS)", "assay_type": "cell-based", "settings": "all three strains tested", "description": "as §4"}, "Staphylococci": {"test_system": "Staphylococci", "test": "Spectrum of activity MIC (NCCLS)", "assay_type": "cell-based", "settings": "all Staphylococci tested", "description": "as §4"}, "Streptococcus pneumoniae": {"test_system": "Streptococcus pneumoniae", "test": "Spectrum of activity MIC (NCCLS)", "assay_type": "cell-based", "description": "as §4"}, "enterococci": {"test_system": "enterococci", "test": "Spectrum of activity MIC (NCCLS)", "assay_type": "cell-based", "settings": "all species of enterococci tested", "description": "as §4"}, "M. bovis": {"test_system": "M. bovis", "test": "microbe, parasite or virus in culture", "assay_type": "cell-based", "settings": "Mycobacterium tuberculosis variant bovis"}, "M. marinum": {"test_system": "M. marinum", "test": "Spectrum of activity MIC, MOTT, agar proportion method", "assay_type": "cell-based", "settings": "Mycobacterium marinum; three strains"}, "M. fortuitum": {"test_system": "M. fortuitum", "test": "Spectrum of activity MIC, rapid-grower, broth microdilution (NCCLS M24-A)", "assay_type": "cell-based", "settings": "Mycolicibacterium fortuitum; all strains tested"}, "[4]": {"test_system": "RIF^R M. tuberculosis isolate 3185", "test": "microbe, parasite or virus in culture", "assay_type": "cell-based"}, "M. tuberculosis H37Rv": {"test_system": "M. tuberculosis H37Rv", "test": "Standard chronic mouse model of tuberculosis, CFU in lung", "assay_type": "in vivo, C57BL/6 female mice"}, "[5]": {"test": "Metabolism by human liver microsomes", "assay_type": "in vitro ADME", "settings": "after 40 min incubation", "text": "Two of the groups contained oxidized metabolites. […] Based on the finding that SQ109 was metabolized rapidly by CYP, it is possible that its antimycobacterial activity may come from one of its metabolites. It is conceivable that SQ109 is a prodrug and requires activation by mycobacterial CYP. We speculate that when SQ109 is used in combination with rifampicin, the latter induces certain CYP activity within the Mycobacteria. Elevated CYP activity activates the SQ109 prodrug more efficiently, resulting in an apparent synergistic activity of the two drugs."}, "M. smegmatis": {"test_system": "M. smegmatis", "test": "Spectrum (unpublished data)", "assay_type": "cell-based"}},
  "note": "Where two headings read alike, the source gives them in different places.",
  "data": [
    {"compound": "CC(C)=CCC/C(C)=C/CNCCNC1C2CC3CC(C2)CC1C3", "note": "(centres unmarked) [Compound 109, N-Geranyl-N′-(2-adamanthyl)ethane-1,2-diamine]", "values": [
      {"measurement": "SI (Selectivity Index)", "setting": "cells; LD50 : MIC", "result": 16.39},
      {"measurement": "LD50", "setting": "cells; concentration at which 50% of the cells are killed", "result": 32, "unit": "µM"},
      {"measurement": "LD50", "setting": "cells; from uM and MW", "result": 14.4, "unit": "µg/mL"},
      {"measurement": "Biostability in plasma (% ↓)", "setting": "[1]; dog", "result": 40, "unit": "% ↓"},
      {"measurement": "Biostability in plasma (% ↓)", "setting": "[1]; human", "result": 30, "unit": "% ↓"},
      {"measurement": "Biostability in plasma (% ↓)", "setting": "[1]; mouse", "result": "stable"},
      {"measurement": "Biostability in plasma (% ↓)", "setting": "[1]; rat", "result": "stable"},
      {"measurement": "AUC", "setting": "in vivo; ip, 6 mg/kg", "result": 1100, "unit": "ng·h/mL"},
      {"measurement": "Cmax", "setting": "in vivo; ip, 6 mg/kg", "result": 935, "unit": "ng/mL"},
      {"measurement": "Urine excretion (%)", "setting": "in vivo; ip, 6 mg/kg", "result": "<0.01", "unit": "%"},
      {"measurement": "bioavailability", "setting": "in vivo; ip, 6 mg/kg", "result": 55, "unit": "%"},
      {"measurement": "half-life", "setting": "in vivo; ip, 6 mg/kg", "result": 4.4, "unit": "h"},
      {"measurement": "AUC", "setting": "in vivo; iv, 3 mg/kg", "result": 1010, "unit": "ng·h/mL"},
      {"measurement": "Cmax", "setting": "in vivo; iv, 3 mg/kg", "result": 1190, "unit": "ng/mL"},
      {"measurement": "Urine excretion (%)", "setting": "in vivo; iv, 3 mg/kg", "result": ".92%"},
      {"measurement": "clearance", "setting": "in vivo; iv, 3 mg/kg", "result": 54, "unit": "mL/min/kg"},
      {"measurement": "half-life", "setting": "in vivo; iv, 3 mg/kg", "result": 5.5, "unit": "h"},
      {"measurement": "AUC", "setting": "in vivo; po, 25 mg/kg", "result": 655, "unit": "ng·h/mL"},
      {"measurement": "Cmax", "setting": "in vivo; po, 25 mg/kg", "result": 227, "unit": "ng/mL"},
      {"measurement": "bioavailability", "setting": "in vivo; po, 25 mg/kg", "result": 2.7, "unit": "%"},
      {"measurement": "fraction unbound at 20 ng/ml", "setting": "in vitro", "result": 0.85},
      {"measurement": "fraction unbound at 200 ng/ml", "setting": "in vitro", "result": 0.26},
      {"measurement": "fraction unbound at 2000 ng/ml", "setting": "in vitro", "result": 0.52},
      {"measurement": "MBC", "setting": "M. tuberculosis", "result": 0.313, "unit": "µg/mL"},
      {"measurement": "inhibition of control specific binding", "setting": "[2]", "result": 58, "unit": "%"},
      {"measurement": "inhibition of control specific binding", "setting": "[3]", "result": 106, "unit": "%"},
      {"measurement": "MIC", "setting": "Haemophilus influenzae", "result": "1 to 32", "unit": "µg/mL"},
      {"measurement": "MIC", "setting": "Helicobacter pylori", "result": 4, "unit": "µg/mL"},
      {"measurement": "MIC", "setting": "Staphylococci", "result": "16 to 32", "unit": "µg/mL"},
      {"measurement": "MIC", "setting": "Streptococcus pneumoniae", "result": "4 to 8", "unit": "µg/mL"},
      {"measurement": "MIC", "setting": "enterococci", "result": "16 to 64", "unit": "µg/mL"},
      {"measurement": "MIC", "setting": "M. bovis", "result": 0.25, "unit": "µg/mL"},
      {"measurement": "MIC", "setting": "M. marinum", "result": 8, "unit": "µg/mL"},
      {"measurement": "MIC", "setting": "M. fortuitum", "result": 1, "unit": "µg/mL"},
      {"measurement": "MIC", "setting": "[4]; Mycobacterium tuberculosis, read-out: MIC (BACTEC)", "result": 0.32, "unit": "µg/mL"},
      {"measurement": "MIC (BACTEC)", "setting": "[4]; isolate 3185", "result": 0.32, "unit": "µg/mL"},
      {"measurement": "CFU in lung", "setting": "M. tuberculosis H37Rv; INH+RIF+SQ109 at 25, 20 and 10 mg/kg, wk 4", "result": 3.2, "unit": "log10CFU"},
      {"measurement": "CFU in lung", "setting": "M. tuberculosis H37Rv; SQ109 by itself, 4 week therapy, control untreated 8.1", "result": 6.6, "unit": "log10CFU"},
      {"measurement": "CFU in lung", "setting": "M. tuberculosis H37Rv; combination SQ109+RIF at 10 and 20 mg/kg, 4 week therapy", "result": 4.8, "unit": "log10"},
      {"measurement": "SQ109 remaining", "setting": "[5]", "result": 8, "unit": "%"},
      {"measurement": "activity", "setting": "M. smegmatis", "result": "much less active"}
    ]}
  ]
}
